In ChEMBL document CHEMBL5465560, “Selectivity Literature for EUbOPEN Chemogenomic Library” (2024):

Legend:
[1] = target: T1, Ephrin type-B receptor 6 (Homo sapiens) (UniProt O15197); test: Selectivity interaction (KinomeScan (DiscoverX)) EUB0000666a EPHB6; settings: at 10 µM
T1 sequence (whole entry): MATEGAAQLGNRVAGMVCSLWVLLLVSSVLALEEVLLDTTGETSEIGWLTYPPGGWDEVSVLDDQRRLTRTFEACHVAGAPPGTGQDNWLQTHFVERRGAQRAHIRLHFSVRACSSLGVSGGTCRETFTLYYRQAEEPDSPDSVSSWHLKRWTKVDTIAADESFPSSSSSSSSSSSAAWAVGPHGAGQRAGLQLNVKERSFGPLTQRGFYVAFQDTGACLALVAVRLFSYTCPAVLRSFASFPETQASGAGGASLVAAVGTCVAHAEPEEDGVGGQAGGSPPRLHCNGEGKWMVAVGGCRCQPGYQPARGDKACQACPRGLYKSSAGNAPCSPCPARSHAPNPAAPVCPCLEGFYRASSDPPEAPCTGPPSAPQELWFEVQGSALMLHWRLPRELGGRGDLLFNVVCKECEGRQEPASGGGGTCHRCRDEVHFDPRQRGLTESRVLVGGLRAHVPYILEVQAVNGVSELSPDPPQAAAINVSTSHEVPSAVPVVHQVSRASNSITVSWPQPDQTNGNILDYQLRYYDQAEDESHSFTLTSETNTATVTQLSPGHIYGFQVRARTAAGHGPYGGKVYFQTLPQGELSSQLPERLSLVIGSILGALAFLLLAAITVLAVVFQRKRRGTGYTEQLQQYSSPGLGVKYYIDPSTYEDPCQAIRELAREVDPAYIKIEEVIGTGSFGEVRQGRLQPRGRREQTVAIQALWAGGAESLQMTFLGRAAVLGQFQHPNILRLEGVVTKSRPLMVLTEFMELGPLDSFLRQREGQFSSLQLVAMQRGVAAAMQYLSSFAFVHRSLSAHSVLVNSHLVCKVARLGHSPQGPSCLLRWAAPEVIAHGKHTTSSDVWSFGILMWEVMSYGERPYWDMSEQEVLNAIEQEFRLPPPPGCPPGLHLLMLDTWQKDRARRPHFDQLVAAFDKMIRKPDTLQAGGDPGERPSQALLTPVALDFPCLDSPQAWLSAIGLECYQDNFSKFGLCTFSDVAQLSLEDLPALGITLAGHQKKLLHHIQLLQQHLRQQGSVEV

[2] = target: T2, Phosphatidylinositol 5-phosphate 4-kinase type-2 gamma (Homo sapiens) (UniProt Q8TBX8); test: Selectivity interaction (ActivX KiNativ screen (kinase selectivity in THP-1 cell lysates)) EUB0000639a PIP4K2C; format: subcellular; settings: lysate, at 1 µM
T2 sequence (whole entry): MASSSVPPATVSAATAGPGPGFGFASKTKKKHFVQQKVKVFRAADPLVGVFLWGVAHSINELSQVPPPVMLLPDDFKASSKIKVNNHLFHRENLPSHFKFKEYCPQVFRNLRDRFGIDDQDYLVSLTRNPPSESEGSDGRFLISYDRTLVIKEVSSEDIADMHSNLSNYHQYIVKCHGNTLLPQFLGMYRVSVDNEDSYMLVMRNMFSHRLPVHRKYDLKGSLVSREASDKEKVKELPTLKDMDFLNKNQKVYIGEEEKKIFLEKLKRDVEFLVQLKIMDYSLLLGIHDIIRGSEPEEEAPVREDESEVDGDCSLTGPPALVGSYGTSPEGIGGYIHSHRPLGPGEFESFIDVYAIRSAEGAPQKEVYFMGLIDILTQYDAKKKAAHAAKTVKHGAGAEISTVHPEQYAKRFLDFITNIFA

[3] = target: T3, STE20-related kinase adapter protein alpha (Homo sapiens) (UniProt Q7RTN6); test: Selectivity interaction (ActivX KiNativ screen (kinase selectivity in THP-1 cell lysates)) EUB0000639a STRADA; format: subcellular; settings: lysate, at 1 µM
T3 sequence (whole entry): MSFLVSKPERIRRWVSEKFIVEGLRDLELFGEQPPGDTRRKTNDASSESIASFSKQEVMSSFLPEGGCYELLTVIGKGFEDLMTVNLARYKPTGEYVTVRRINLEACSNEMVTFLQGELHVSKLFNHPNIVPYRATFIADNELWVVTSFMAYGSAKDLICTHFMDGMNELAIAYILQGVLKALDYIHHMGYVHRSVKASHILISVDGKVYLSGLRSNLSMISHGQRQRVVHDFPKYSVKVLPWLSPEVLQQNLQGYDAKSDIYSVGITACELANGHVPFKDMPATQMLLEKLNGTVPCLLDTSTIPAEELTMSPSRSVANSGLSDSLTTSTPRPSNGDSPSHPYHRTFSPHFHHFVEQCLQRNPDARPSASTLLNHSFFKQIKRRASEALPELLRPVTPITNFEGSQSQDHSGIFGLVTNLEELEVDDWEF

[4] = target: Interleukin-1 receptor-associated kinase 1 (Homo sapiens) (UniProt P51617); test: Selectivity interaction (Upstate Kinase Profiler service (Millipore)) EUB0000056c IRAK1; settings: at 1 µM
Chain of Interleukin-1 receptor-associated kinase 1 (Homo sapiens) (P51617 whole entry, looked up): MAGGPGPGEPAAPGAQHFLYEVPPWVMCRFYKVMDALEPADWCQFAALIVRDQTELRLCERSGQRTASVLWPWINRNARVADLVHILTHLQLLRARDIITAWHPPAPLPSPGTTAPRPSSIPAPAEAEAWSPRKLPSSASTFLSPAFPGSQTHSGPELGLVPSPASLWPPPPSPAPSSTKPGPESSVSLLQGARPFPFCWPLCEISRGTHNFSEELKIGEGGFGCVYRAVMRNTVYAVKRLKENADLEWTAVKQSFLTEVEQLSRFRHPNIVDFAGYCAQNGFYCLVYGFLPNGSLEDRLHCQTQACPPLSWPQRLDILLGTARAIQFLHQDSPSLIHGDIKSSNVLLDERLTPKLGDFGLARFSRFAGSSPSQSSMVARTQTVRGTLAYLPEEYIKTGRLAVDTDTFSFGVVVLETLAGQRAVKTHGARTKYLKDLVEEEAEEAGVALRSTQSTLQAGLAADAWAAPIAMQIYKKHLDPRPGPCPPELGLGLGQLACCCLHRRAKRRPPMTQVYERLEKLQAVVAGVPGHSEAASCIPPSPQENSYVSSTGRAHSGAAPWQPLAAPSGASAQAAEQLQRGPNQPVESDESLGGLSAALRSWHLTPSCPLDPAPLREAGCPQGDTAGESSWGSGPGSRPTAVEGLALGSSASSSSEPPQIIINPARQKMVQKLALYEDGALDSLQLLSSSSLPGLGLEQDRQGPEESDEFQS

[5] = target: T4, Muscarinic acetylcholine receptor M2 (Homo sapiens) (UniProt P08172); test: Selectivity interaction (Panel of kinases, GPCRs, ion channels and transporters (enzymatic assay)) EUB0000266bCl CHRM2
T4 sequence (whole entry): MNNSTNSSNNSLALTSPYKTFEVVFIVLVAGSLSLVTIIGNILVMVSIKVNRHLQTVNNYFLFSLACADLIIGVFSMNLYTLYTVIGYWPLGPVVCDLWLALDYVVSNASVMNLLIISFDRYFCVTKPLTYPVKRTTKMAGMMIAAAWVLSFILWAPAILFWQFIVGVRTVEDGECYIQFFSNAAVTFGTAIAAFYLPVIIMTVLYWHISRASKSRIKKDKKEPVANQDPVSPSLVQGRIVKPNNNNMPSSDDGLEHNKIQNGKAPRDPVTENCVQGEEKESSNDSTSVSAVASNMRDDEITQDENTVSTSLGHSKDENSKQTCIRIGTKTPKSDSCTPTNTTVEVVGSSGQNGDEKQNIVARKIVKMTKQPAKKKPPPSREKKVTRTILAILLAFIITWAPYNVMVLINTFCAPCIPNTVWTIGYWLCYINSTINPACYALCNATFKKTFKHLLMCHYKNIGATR

SMILES: O=C(NOC[C@H](O)CO)c1ccc(F)c(F)c1Nc1ccc(I)cc1F
- % of control [1]: 87%

SMILES: CC[C@@H]1[C@H](F)C(=O)N[C@@H]1COc1nccc2cc(C(N)=O)c(OC)cc12 [ZIMLOVISERTIB]
- % of inhibition [2]: 76.4%
- % of inhibition [3]: -7.6%

SMILES: Cc1ccc(-c2ccc3c(ccc4sc5c(c43)NC[C@@H](C)NC5=O)n2)cn1
- % of inhibition [4]: 22%

SMILES: CCn1c(-c2nc3cc(C(=O)N4CCCC(N)C4)ccc3n2C)cc2ccccc21 (stereo not given)
- pXC50 [5]: < 4.8 M
